Source: patent publication US4104285A, “Taurine and glycine derivatives” (Hoffmann-La Roche Inc., priority 1977, dated 1978)

Legend:
rat pancreatic lipase = molecular target: T1, rat pancreatic lipase (Rattus norvegicus, UniProt P27657); test: inhibition of rat pancreatic lipase activity in vitro; assay type: biochemical; details: [14C]-triolein emulsion, pH 8.6, 20 min. at 37° C
T1 sequence (P27657 17-465): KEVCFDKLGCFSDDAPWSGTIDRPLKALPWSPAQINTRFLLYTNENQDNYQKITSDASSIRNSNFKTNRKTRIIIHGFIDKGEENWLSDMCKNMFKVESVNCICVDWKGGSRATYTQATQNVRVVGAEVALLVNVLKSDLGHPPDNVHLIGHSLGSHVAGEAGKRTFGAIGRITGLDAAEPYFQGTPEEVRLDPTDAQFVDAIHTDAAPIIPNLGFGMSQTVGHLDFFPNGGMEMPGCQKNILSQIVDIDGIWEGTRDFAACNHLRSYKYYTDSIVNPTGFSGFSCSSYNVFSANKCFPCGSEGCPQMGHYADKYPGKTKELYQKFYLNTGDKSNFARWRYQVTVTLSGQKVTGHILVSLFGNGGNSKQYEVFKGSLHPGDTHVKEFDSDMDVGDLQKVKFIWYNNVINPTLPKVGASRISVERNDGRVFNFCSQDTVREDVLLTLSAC
Procedure: Dietary long-chain triglycerides must be hydrolyzed by pancreatic lipase in the duodenum before absorption can occur. […] The capacity of compounds of formula I-C to inhibit rat pancreatic lipase in vitro was investigated by testing the following compounds: The ability of compounds to inhibit rat pancreatic lipase is determined by analyzing the nmoles of free fatty acid [oleic acid] released from [^14 C]-triolein. Compounds of A and B are added to an emulsion consisting of: 200,000 dmp ^14 C-triolein, 7.5 mg triolein, 0.75 mg sodium taurocholate, 15 mg bovine serum albumin and 0.9 ml 0.2 M tris-HCl - 0.15 M NaCl, pH 8.6, per assay. Water and/or pancreatic lipase is added to make an assay volume of 1.0 ml. The emulsion is incubated for 20 min. at 37° C in a shaking water bath. The reaction is stopped by the addition of isopropanol; H2 SO4 (40:1). The lipids are extracted twice with 3 ml volumes of hexane. The liberated fatty acids are extracted with 2 ml of 0.1 N aqueous KOH in 50% methanol. A 1 ml aliquot of the KOH layer is placed in a scintillation vial with 10 ml of 2,5-bis-2-(5-tertiary butyl benzoxazolyl)thiophene. The radioactivity is determined in a scintillation counter. Data are expressed a nmoles free fatty acid [oleic acid] related.

bile flow = test: stimulation of bile flow in rats, duodenal infusion; assay type: in vivo, female albino rats; details: 100 mg by duodenal infusion in 4ml emulsion, compared to rats which received only the emulsion
Procedure: The compounds of formula I-A are active in stimulation of bile flow which results in the dissolution of gall stones. This can be seen from the fact that when 100 mg of N-(3α,12α-dihydroxy-5β-24-norcholanoyl)-taurine was administered by duodenal infusion to female albino rats in a 4ml emulsion of sodium taurocholate in […], the flow of bile was increased 15% during the first 8 hours and 30% during the period of 9 to 15 hours after administration compared to the flow in rats which received only the emulsion without the taurine compound. […] This enabled the production of lymph at a constant rate, the infusion of a bile salt and the simultaneous collection of bile.

[1] = test system: cholesterol level in the lymph; test: cholesterol level in thoracic duct lymph of rats after oral administration with 4-14C-cholesterol emulsion; assay type: in vivo, female albino rats (Charles River); details: 100mg orally, compared to control (Na-TC)
Procedure: The lowering of the cholesterol levels in mammals by the administration of the compound of formula I-B can be seen from the fact that when 100mg of N-(3α,12α-dihydroxyetiocholanoyl)glycine was administered orally to female albino rats, the cholesterol level in the lymph was decreased after administration by 86% over the first 8 hours and 94% over the next 9 to 24 hr. period after administration as compared to the control. In this procedure, female albino rats (Charles River), weighing 300 ± 10 g were kept on a Purina chow diet ad libitum until the time of operation. […] This preparation enabled the production of lymph at a constant rate, the infusion of a bile salt, and the simultaneous collection of bile. All animals received, after operation, a continuous duodenal infusion of sodium taurocholate (Na-TC) in 0.85% NaCl. One day after operation, the rats were given, by stomach intubation, an emulsion containing about 4% triolein, 20 μ C of 4-^14 C-cholesterol (Specific Activity 61.7 mC/mM, 159 μ C/mg), 2 mg of cholesterol, in addition to protein, carbohydrate, and saline. Both the Na-TC and the cholesterol carrier employed gave a single spot on either thin layer or glass fiber paper chromatograph so no further purification was attempted. […] An aliquot of the lipid extract was placed on a small piece of glass fiber paper and counted. […]

triglyceride absorption = test: effect on triglyceride absorption in vivo, rise in plasma triglycerides after oral load of corn oil; design: species or system rats
Procedure: The ability of compound I to inhibit the absorption of dietary triglyceride in rats is determined by analyzing the rise in serum triglycerides after an oral load of corn oil. […] In this procedure blood samples (0.4 ml) were collected from the rat tail 0, 2, 4, 6, 8 and 24 hours after compound administration. Each rat is its own control. Plasma samples were analyzed for triglyceride content by the procedure set forth in Kessler and Lederer, Tehnicon Symposium 1965 Automation in Analytical Chemistry Ed L. Skeggs, published Mediad Inc. New York (1966) pp 341. The data in Table I is expressed as mg% change in plasma triglyceride levels compared to zero time control values at each time interval. This change in plasma triglycerides was determined by calculating the difference between the triglyceride level at each time point compared to zero time contol level.

| SMILES | Ki (rat pancreatic lipase) | increase in flow of bile (bile flow; during the first 8 hours after administration) | increase in flow of bile (bile flow; period of 9 to 15 hours after administration) | decrease of cholesterol level in the lymph (4-14C-cholesterol, % decrease over the control) ([1]; first 8 hours after administration) | decrease of cholesterol level in the lymph (4-14C-cholesterol, % decrease over the control) ([1]; next 9 to 24 hr. period after administration) | ability to inhibit absorption of triglyceride (triglyceride absorption; 1.1 m moles/kg orally 15 minutes before oral corn oil, 24 hour fasted rats) | Change in Plasma Triglyceride Levels, 4 hr (triglyceride absorption; 1.1 m moles/kg orally 15 minutes before oral corn oil, 24 hour fasted rats, 4 hr vs zero time, Control 98 ± 31) | Change in Plasma Triglyceride Levels, 6 hr (triglyceride absorption; 1.1 m moles/kg orally 15 minutes before oral corn oil, 24 hour fasted rats, 6 hr vs zero time, Control 161 ± 28) | Change in Plasma Triglyceride Levels, 8 hr (triglyceride absorption; 1.1 m moles/kg orally 15 minutes before oral corn oil, 24 hour fasted rats, 8 hr vs zero time, Control 391 ± 58) | Change in Plasma Triglyceride Levels, 24 hr (triglyceride absorption; 1.1 m moles/kg orally 15 minutes before oral corn oil, 24 hour fasted rats, 24 hr vs zero time, Control 130 ± 36) | Change in Plasma Triglyceride Levels, 2 hr (triglyceride absorption; po) |
| --- | --- | --- | --- | --- | --- | --- | --- | --- | --- | --- | --- |
| C[C@H](CC(=O)NCC(=O)O)[C@H]1CC[C@H]2[C@@H]3CC[C@@H]4C[C@H](O)CC[C@]4(C)[C@H]3C[C@H](O)[C@]12C [Compound B, N-(3α,12α-dihydroxy-5β-24-norcholanoyl)glycine] | 8 mM |  |  |  |  |  |  |  |  |  |  |
| C[C@H](CC(=O)NCCS(=O)(=O)O)[C@H]1CC[C@H]2[C@@H]3CC[C@@H]4C[C@H](O)CC[C@]4(C)[C@H]3C[C@H](O)[C@]12C [Compound A, N-(3α,12α-dihydroxy-5β-24-norcholanoyl)-taurine] | 7 mM | 15% | 30% |  |  |  |  |  |  |  |  |
| C[C@]12CC[C@@H](O)C[C@H]1CC[C@@H]1[C@@H]2C[C@H](O)[C@]2(C)[C@@H](C(=O)NCC(=O)O)CC[C@@H]12 [N-(3α,12α-dihydroxyetiocholanoyl)glycine] |  |  |  | 86% | 94% | inhibit absorption of triglyceride | 107 ± 17 mg % | 130 ± 17 mg % | 167 ± 22 mg % | 46 ± 5 mg % | 29 ± 3 mg % |
